Source: patent US20050239873A1 (priority 1999, published 2005)

Experiments:
[1] = Stability in cell culture; type: in vitro ADME; conditions: HL-60 and RPMI-8226 cultures, 500 ng/ml
Protocol: HL60 and RPMI-8226 cells were maintained in cell culture medium in the presence or absence of 20% fetal bovine serum. 2-OMeA1 (500 ng/ml) was added to a culture containing 200,000 cells/ml, and to another flask containing only the medium. From the flasks, portions were removed at various times and, as appropriate, centrifuged to collect cells. Samples of cell-free medium, to which NaF/EDTA was added, were extracted. Collected cells were suspended in phosphate-buffered saline (PBS) containing NaF/EDTA, subjected to sonication, and then extracted and analyzed.

[2] = test system: mitochondria from TABX2S cells; assay: Rhodamine 123 retention assay; parameters: species or system murine; conditions: five minutes after adding
Protocol: Rh-123 is a cationic lipid-soluble fluorescent dye that accumulates in mitochondria in proportion to the mitochondrial membrane potential. Mitochondria were isolated from TABX2S cells (over-expressing Bcl-xL) and from control cells, prepared as described in Example 2. The isolated mitochondria were loaded with Rh-123 by incubating with 10 μM Rh-123 for 30 minutes, washed and resuspended in buffer. […] Less than 40% of Rh-123 was retained in antimycin A-treated TABX2S mitochondria, compared with greater than 80% retained in control mitochondria.

[3] = Binding to plasma proteins (ultrafiltration); type: in vitro ADME, dog; conditions: dog, plasma, presence of NaF+EDTA, read-out: Protein binding, Dog
Protocol: Solutions of 2-OMe antimycin A3 were diluted with plasma (dog or human) containing NaF+EDTA to final concentrations of 1.0 or 0.2 μg/ml. Controls were diluted with water to the same final concentrations. These preparations were incubated at 37° C. for 20 min, at which time portions were taken and placed in the sample reservoirs of Amicon Centrifree® ultrafiltration systems (Millipore Co., Bedford, Mass.). At 37° C., the filter systems were centrifuged until the reservoirs were dry. From each filtrate, portions were taken for analysis by HPLC. The amounts present were designated as “free drug” (F). The concentrations of the unfiltered solutions were also determined by triplicate analyses. This amount represented the “total drug” concentration (T). The percentage of 2-OMe antimycin A3 bound to plasma proteins was calculated by the following formula: % bound=((T−F)/T)×100
Similar experiments were performed for 2-OMe antimycin A3 in dog or rat plasma in the absence of NaF/EDTA.

CCCCCC[C@H]1C(=O)O[C@H](C)[C@H](NC(=O)c2cccc(NC=O)c2OC)C(=O)O[C@@H](C)[C@@H]1OC(=O)CC(C)C [2-OMeA1, 2-methoxy antimycin A1]
stability in the medium from cell cultures [1]: notably less stable in the absence of fetal bovine serum

antimycin A
Rh-123 retained [2]: Less than 40%

CCCC[C@H]1C(=O)OC(C)[C@H](NC(=O)c2cccc(NC=O)c2OC)C(=O)O[C@@H](C)C1OC(=O)CC(C)C (stereo partly drawn) [2-OMeA3, Antimycin A3 methyl ether]
fraction unbound at 20 min, 1000 ng/ml [3]: < 0.01
